Experimental data: patent EP4656640A1, “IRAK4 DEGRADER AND USE THEREOF” (Shanghai Qilu Pharmaceutical Research and Development …, priority 2023, dated 2024)
Like-named read-outs stand apart in the source and are kept apart here. Blank lines part the entries; values can stand above or below the compound they belong to.

Key:
[1] = system: TNFα secretion; assay: Inhibition of induced TNFα secretion in human PBMCs (CBA); assay type: cell-based; conditions: PBMC
Experimental: (§1) The effect of PROTAC small molecules on inflammatory factors in PBMCs downstream of IRAK4 induced by TLR and IL-1 was detected based on the CBA (cytometric bead array) method.
(§2) Step 2: The density of PBMCs was adjusted to 1 E6/mL, and 150 µL of PBMCs in 1640 complete medium were seeded into a 96-well plate, followed by incubation at 37°C for 1 hour.
(§3) Step 3: 50 µL of serially diluted small molecule (working concentration: 10000 nM, 1:3 dilution) drugs were inoculated into the plate in a 37°C incubator for 8 hours.
(§4) Step 4: 10 µL of stimulants were added respectively, with final concentrations of 100 ng/mL for LPS, 1 µg/mL for R848, and 100 ng/mL for IL-1β.
(§5) Step 5: CBA assay. The concentrations of IL-6 and TNF-α in the cell culture supernatant were determined using Hu IL-6 CBA Flex Set A7 and Hu TNF- CBA Flex Set D9.
(§6) Step 6: Standard samples were prepared: 2500 pg/mL, 1250 pg/mL,...0. A 1:2 serial dilution was performed to obtain 10 concentrations.
(§7) Step 7: The mixed capture beads were resuspended in capture bead diluent (1:50), and cell culture supernatant (50 µL) was added, followed by incubation at room temperature for 10 minutes.
(§8) Step 8: The detection reagent prepared with detection diluent was added, and the mixture was incubated in the dark at room temperature for 3 hours. At the end of incubation, the samples were washed once with wash buffer and resuspended for detection.
(§9) The concentrations of IL-6 and TNFα were calculated using the standard curve method. Data presentation and IC50 calculation were performed using Prism 8.0.2.

[2] = system: IL-6 secretion; assay: Inhibition of induced IL-6 secretion in human PBMCs (CBA); assay type: cell-based; conditions: PBMC
Experimental: as §1, §2, §3, §4, §5, §6, §7, §8, §9

[3] = Dog pharmacokinetics, oral gavage (Experiment 3); assay type: in vivo; conditions: Beagle dogs, oral gavage 2.5 mg/kg, plasma
Experimental: Healthy Beagle dogs, male, weighing about 8-10 kg, 3 animals per group.
The animals were not fasted and had free access to water.
Venous blood (0.5-0.8 mL) was collected at 15 minutes, 30 minutes, 1 hour, 2 hours, 4 hours, 8 hours, and 24 hours after oral gavage administration, placed in K2EDTA tubes, and centrifuged at 4°C to separate plasma. The concentration of the compound in plasma was determined by liquid chromatography-tandem mass spectrometry.
The main pharmacokinetic parameters were calculated using WinNonlin. […] Table 8. Pharmacokinetic parameters of some compounds of the present disclosure administered orally to dogs

[4] = Mouse pharmacokinetics, oral (Experiment 1); assay type: in vivo, C57BL/6 mice; conditions: mice, PO 100 mg/kg, fasted overnight, plasma
Experimental: C57BL/6 mice were used as test animals to study the pharmacokinetic behavior of the compounds of the present disclosure in mouse plasma after oral administration at a dose of 100 mg/kg.
C57BL/6, male, transferred from the animal repository of the laboratory institution (999M-018).
Three male C57BL/6 mice were fasted overnight (10-14 hours) with free access to water one day before administration. The mice were fed 4 hours after administration. The dose for PO administration was 100 mg/kg, with an administration volume of 20 mL/kg.
After administration, blood samples (0.03 mL) were collected from the mice via venipuncture at 0.083, 0.25, 0.5, 1, 2, 4, 8, and 24 hours. The samples were placed in EDTA-K2 tubes and centrifuged at 6800 rpm for 5 minutes at 2-8°C. The plasma was separated and stored at -80°C.
• 1) 10 µL of plasma sample was added to 200 µL of methanol for precipitation. After mixing, the mixture was centrifuged at 18000 g for 10 minutes. • 2) The processed supernatant solution was taken for LC/MS/MS analysis to determine the concentration of the test compound.
• Liquid phase conditions: Shimadzu LC-30AD pump • Mass spectrometry conditions: AB Sciex API 5500 mass spectrometer • Chromatographic column: Phenomenex Kinetex 2.6 µm C18 50 3.0 mm • Mobile phase: Solution A was 0.1% formic acid in water, and solution B was 0.1% formic acid in acetonitrile • Flow rate: 0.6 mL/min • Elution time: Gradient elution for 0-1.6 minutes.
The main pharmacokinetic parameters were calculated using WinNonlin 8.0.

[5] = target: T1, IRAK4 (Homo sapiens, UniProt Q9NWZ3); assay: Degradation of IRAK4 in SU-DHL-2 cells (flow cytometry); assay type: cell-based; parameters: The degradation level of IRAK4 protein in SU-DHL-2 cell line by the compounds was detected by flow cytometry; endogenous in cells; host or cells: SU-DHL-2; OCI-LY3
T1 sequence (Q9NWZ3 1-460): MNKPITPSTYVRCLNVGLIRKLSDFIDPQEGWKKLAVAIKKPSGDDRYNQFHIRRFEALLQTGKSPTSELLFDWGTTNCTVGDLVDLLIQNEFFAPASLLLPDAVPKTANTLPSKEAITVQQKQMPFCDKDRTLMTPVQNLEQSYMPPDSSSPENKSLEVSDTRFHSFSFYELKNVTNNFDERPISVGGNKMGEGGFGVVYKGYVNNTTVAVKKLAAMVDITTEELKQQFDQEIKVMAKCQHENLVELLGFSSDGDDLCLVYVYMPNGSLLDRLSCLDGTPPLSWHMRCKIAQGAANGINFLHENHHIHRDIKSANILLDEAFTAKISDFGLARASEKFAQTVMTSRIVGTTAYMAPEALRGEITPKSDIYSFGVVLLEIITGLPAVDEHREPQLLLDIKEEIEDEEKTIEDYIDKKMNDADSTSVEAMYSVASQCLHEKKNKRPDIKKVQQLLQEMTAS
Experimental: The degradation level of IRAK4 protein in SU-DHL-2 cell line by the compounds was detected by flow cytometry.
Step 2: On day 1, the cells were seeded at a density of 2 × 10^5 cells per well in 100 µL in a 96-well plate. The compounds were dissolved in DMSO to a final concentration of 10 mM, and then diluted with culture medium at a 1:5 concentration gradient to prepare 10 concentrations. The diluted solutions were added to the cells to obtain a maximum final concentration of 2 µM. Wells containing cells treated with 0.1% DMSO served as the […] The cells were incubated at 37°C in a 5% CO2 incubator for 24 hours.
Step 3: After centrifugation, the cells were washed with FACS buffer. The cells were stained for viability discrimination using the LIVE/DEAD™ Fixable Blue Dead Cell Stain Kit, and surface staining of monocytes was performed with PE Mouse Anti-Human CD14, followed by incubation at 4°C for 30 minutes.
Step 4: After centrifugation, the cells were washed with FACS buffer. Fix buffer I, equal in volume to the cultured cells, was added, and the cells were fixed at 37°C for 10 minutes.
Step 5: After centrifugation, the cells were washed with FACS buffer. 150 µL of Perm III reagent was added, and the cells were incubated at 4°C for 30 minutes to permeabilize the membranes. After centrifugation, the cells were washed with FACS buffer.
Flow cytometry analysis was performed using a flow cytometer.
The flow cytometry data were analyzed using Flowjo software. Data presentation and DC50 (half-maximal degradation concentration) calculation were performed using Prism 8.0.2 (GraphPad).

[6] = target: T1, IRAK4; assay type: cell-based; parameters: endogenous in cells; host or cells: OCI-LY3; conditions: read-out: OCI-LY3 DC50
[7] = IL-1β 100 ng/mL, read-out: IC50, TNFα secretion induced by IL-1β
[8] = LPS 100 ng/mL, read-out: IC50, TNFα secretion induced by LPS
[9] = R848 1 µg/mL, read-out: IC50, TNFα secretion induced by R848
[10] = IL-1β 100 ng/mL, read-out: IC50 of compounds against induced secretion, IL-6, IL-1β
[11] = LPS 100 ng/mL, read-out: IC50 of compounds against induced secretion, IL-6, LPS
[12] = R848 1 µg/mL, read-out: IC50 of compounds against induced secretion, IL-6, R848
[13] = SU-DHL-2 cells, 24 hours incubation; read-out: SU-DHL-2 DC50
[14] = read-out: SU-DHL-2 DC50; SU-DHL-2 cells, 24 hours incubation

SMILES: Cn1c(=O)n(C2CCC(=O)NC2=O)c2cccc(C#CCOC3CCN(C(=O)N4CCC5(CC4)CC(n4cc(NC(=O)c6cnn7ccc(N8C[C@H]9C[C@@H]8CO9)nc67)c(C(F)F)n4)C5)CC3)c21 (stereo partly shown) [Example 13]
- IC50 [1, 7]: 13 nM
- IC50 [1, 8]: 22.3 nM
- IC50 [1, 9]: 20 nM
- IC50 [2, 10]: 13.2 nM
- IC50 [2, 11]: 19.7 nM
- IC50 [2, 12]: 10 nM
- AUC(0-t) at 24 h [3]: 521 ng·h/mL
- Cmax [3]: 102 ng/mL
- MRT inf [3]: 4.5 h
- half-life [3]: 2.1 h
- AUC(0-inf) [4]: 19200 ng·h/mL
- AUC(0-t) at 24 h [4]: 16300 ng·h/mL
- Cmax [4]: 2160 ng/mL
- MRT inf [4]: 10.9 h
- Tmax [4]: 1 h
- half-life [4]: 7.6 h

SMILES: Cn1c(=O)n(C2CCC(=O)NC2=O)c2cccc(C#CCCCN3CCC4(CC3)CC(n3cc(NC(=O)c5cnn6ccc(N7C[C@H]8C[C@@H]7CO8)nc56)c(C(F)F)n3)C4)c21 (stereo partly shown) [Example 17]
- DC50 [5, 13]: 1 nM
- DC50 ([6]; OCI-LY3 cells): 1 nM

SMILES: Cn1c(=O)n(C2CCC(=O)NC2=O)c2cccc(C#CCOCC3(C(=O)N4CCC5(CC4)CC(n4cc(NC(=O)c6cnn7ccc(N8C[C@H]9C[C@@H]8CO9)nc67)c(C(F)F)n4)C5)CC3)c21 (stereo partly shown) [Example 7]
- DC50 [5, 14]: 12 nM
- DC50 ([6]; OCI-LY3 cells): 10 nM

SMILES: Cn1c(=O)n(C2CCC(=O)NC2=O)c2cccc(C#CCOCC3CC(N4CCC5(CC4)CC(n4cc(NC(=O)c6cnn7ccc(N8C[C@H]9C[C@@H]8CO9)nc67)c(C(F)F)n4)C5)C3)c21 (stereo partly shown) [Example 9]
- DC50 [5, 13]: 2.7 nM
- DC50 ([6]; OCI-LY3 cells): 2.3 nM

SMILES: Cn1c(=O)n(C2CCC(=O)NC2=O)c2cccc(C#CCCCCN3CCC4(CC3)CC(n3cc(NC(=O)c5cnn6ccc(N7C[C@H]8C[C@@H]7CO8)nc56)c(C(F)F)n3)C4)c21 (stereo partly shown) [Example 15]
- DC50 [5, 13]: 5 nM
- DC50 ([6]; OCI-LY3 cells): 1.5 nM

SMILES: Cn1c(=O)n(C2CCC(=O)NC2=O)c2cccc(C#CCOCCC(=O)N3CCC4(CC3)CC(n3cc(NC(=O)c5cnn6ccc(N7C[C@H]8C[C@@H]7CO8)nc56)c(C(F)F)n3)C4)c21 (stereo partly shown) [Example 8]
- DC50 [5, 14]: 4 nM
- DC50 ([6]; OCI-LY3 cells): 2 nM

SMILES: Cn1c(=O)n(C2CCC(=O)NC2=O)c2cccc(C#CCO[C@H]3CC[C@H](CN4CCC5(CC4)CC(n4cc(NC(=O)c6cnn7ccc(N8C[C@H]9C[C@@H]8CO9)nc67)c(C(F)F)n4)C5)CC3)c21 (stereo partly shown) [Example 31]
- IC50 [1, 7]: 2.1 nM
- IC50 [1, 8]: 7.7 nM
- IC50 [1, 9]: 8.2 nM
- IC50 [2, 10]: 9.3 nM
- IC50 [2, 11]: 4.6 nM
- IC50 [2, 12]: 0.9 nM
- AUC(0-t) at 24 h [3]: 198 ng·h/mL
- Cmax [3]: 15 ng/mL
- MRT inf [3]: 12 h
- half-life [3]: 8 h
- AUC(0-inf) [4]: 5460 ng·h/mL
- AUC(0-t) at 24 h [4]: 4890 ng·h/mL
- Cmax [4]: 364 ng/mL
- MRT inf [4]: 10.4 h
- Tmax [4]: 3.3 h
- half-life [4]: 7.3 h

SMILES: Cn1c(=O)n(C2CCC(=O)NC2=O)c2cccc(C#CCO[C@H]3C[C@H](CN4CCC5(CC4)CC(n4cc(NC(=O)c6cnn7ccc(N8C[C@H]9C[C@@H]8CO9)nc67)c(C(F)F)n4)C5)C3)c21 (stereo partly shown) [Example 29]
- DC50 [5, 14]: 3 nM
- DC50 ([6]; OCI-LY3 cells): 1 nM

- DC50 ([5]; read-out: SU-DHL-2 DC50): 11 nM
- DC50 [6]: 8 nM
SMILES: Cn1c(=O)n(C2CCC(=O)NC2=O)c2cccc(C#CCN3CCC(CN4CCC5(CC4)CC(n4cc(NC(=O)c6cnn7ccc(N8C[C@H]9C[C@@H]8CO9)nc67)c(C(F)F)n4)C5)CC3)c21 (stereo partly shown) [Example 3]

SMILES: Cn1c(=O)n(C2CCC(=O)NC2=O)c2cccc(C#CCO[C@H]3C[C@@H](CN4CCC5(CC4)CC(n4cc(NC(=O)c6cnn7ccc(N8C[C@H]9C[C@@H]8CO9)nc67)c(C(F)F)n4)C5)C3)c21 (stereo partly shown) [Example 30]
- DC50 [5, 14]: 3 nM
- DC50 ([6]; OCI-LY3 cells): 1 nM

SMILES: Cn1c(=O)n(C2CCC(=O)NC2=O)c2cccc(C#CCOCCN3CCC4(CC3)CC(n3cc(NC(=O)c5cnn6ccc(N7C[C@H]8C[C@@H]7CO8)nc56)c(C(F)F)n3)C4)c21 (stereo partly shown) [Example 1]
- DC50 [5, 13]: 1.4 nM
- DC50 ([6]; OCI-LY3 cells): 0.4 nM

- DC50 ([5]; read-out: SU-DHL-2 DC50): 8 nM
- DC50 [6]: 5 nM
SMILES: Cn1c(=O)n(C2CCC(=O)NC2=O)c2cccc(C#CCOCCCCN3CCC4(CC3)CC(n3cc(NC(=O)c5cnn6ccc(N7C[C@H]8C[C@@H]7CO8)nc56)c(C(F)F)n3)C4)c21 (stereo partly shown) [Example 4]
